Biological target: T1, human RXFP1 receptor (Homo sapiens, UniProt Q9HBX9)
T1 construct: expressed in transfected cells
T1 sequence (Q9HBX9 1-757): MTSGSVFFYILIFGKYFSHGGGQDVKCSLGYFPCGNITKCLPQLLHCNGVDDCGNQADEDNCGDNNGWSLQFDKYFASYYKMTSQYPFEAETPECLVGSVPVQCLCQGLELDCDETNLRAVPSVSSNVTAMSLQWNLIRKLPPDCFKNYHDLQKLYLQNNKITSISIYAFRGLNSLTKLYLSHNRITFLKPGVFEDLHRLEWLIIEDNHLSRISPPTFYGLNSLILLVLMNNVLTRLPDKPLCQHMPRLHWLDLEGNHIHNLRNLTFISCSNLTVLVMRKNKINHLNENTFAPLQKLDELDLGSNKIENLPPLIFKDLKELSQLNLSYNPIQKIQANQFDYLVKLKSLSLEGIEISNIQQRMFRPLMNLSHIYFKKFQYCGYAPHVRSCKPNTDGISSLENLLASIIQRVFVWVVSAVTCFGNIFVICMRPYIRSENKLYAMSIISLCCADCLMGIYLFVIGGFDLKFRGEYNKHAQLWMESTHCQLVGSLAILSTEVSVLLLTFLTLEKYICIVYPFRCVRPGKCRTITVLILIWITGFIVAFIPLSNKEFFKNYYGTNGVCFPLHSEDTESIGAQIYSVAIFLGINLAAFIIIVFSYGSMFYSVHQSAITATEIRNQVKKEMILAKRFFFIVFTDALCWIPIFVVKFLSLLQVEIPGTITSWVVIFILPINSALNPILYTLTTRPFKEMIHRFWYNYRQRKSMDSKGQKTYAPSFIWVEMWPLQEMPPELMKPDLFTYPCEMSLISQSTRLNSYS
Experiment: Intracellular cAMP accumulation assay
Assay type: cell-based

| Compound | EC50 [nM] |
| --- | --- |
| CC[C@H](C)[C@@H]1NC(=O)[C@H](C)NC(=O)[C@H]([C@@H](C)CC)NC(=O)[C@H](CCC(N)=O)NC(=O)[C@H](C)NC(=O)[C@H](CCCNC(=N)N)NC(=O)[C@H](C(C)C)NC(=O)[C@H](CC(C)C)NC(=O)[C@H](CCC(=O)O)NC(=O)[C@H](CCCNC(=N)N)NC(=O)CNC(=O)[C@@H](NC(=O)[C@H](CC(C)C)NC(=O)[C@H](CCCCN)NC(=O)[C@@H](NC(=O)[C@@H](NC(=O)[C@H](CCC(=O)O)NC(=O)[C@H](CCC(=O)O)NC(=O)[C@H](CCSC)NC(=O)[C@H](Cc2c[nH]c3ccccc23)NC(=O)[C@H](CO)NC(=O)[C@H](C)N)C(C)C)[C@@H](C)CC)CSSC[C@@H]2NC(=O)[C@@H](NC(=O)[C@H](CCCCN)NC(=O)[C@H](CC(N)=O)NC(=O)[C@H](C)NC(=O)[C@H](CC(C)C)NC(=O)[C@H](C)NC(=O)[C@H](CO)NC(=O)[C@H](Cc3ccc(O)cc3)NC(=O)[C@H](CC(C)C)NC(=O)[C@@H](N)Cc3ccc(C(C)=NOCCNC(=O)[C@H](CCC(=O)O)NC(=O)CNC(=O)CNC(=O)CNC(=O)CNC(=O)[C@H](CO)NC(=O)[C@H](CCCCN)NC(=O)CC[C@H](NC(=O)CCCCCCCCCCCCC(=O)O)C(=O)O)cc3)CSSC[C@H](NC(=O)CNC(=O)[C@H](C(C)C)NC(=O)[C@H](Cc3c[nH]cn3)NC2=O)C(=O)N[C@@H]([C@@H](C)O)C(=O)N[C@@H](CCCCN)C(=O)N[C@@H](CCCNC(=N)N)C(=O)N[C@@H](CO)C(=O)N[C@@H](CC(C)C)C(=O)N[C@@H](C)C(=O)N[C@@H](CCCNC(=N)N)C(=O)N[C@@H](Cc2ccccc2)C(=O)N[C@H](C(=O)O)CSSC[C@@H](C(=O)NCC(=O)N[C@@H](CCSC)C(=O)N[C@@H](CO)C(=O)N[C@H](C(=O)N[C@@H](Cc2c[nH]c3ccccc23)C(=O)N[C@@H](CO)C(=O)O)[C@@H](C)O)NC1=O [AQ1-EGGGGSK-Glu^γ-C13-COOH] | 0.31 |
| CCCCCCCCCCCCCCCC(=O)N[C@@H](CCC(=O)N[C@@H](CCC(=O)O)C(=O)N[C@@H](CCC(=O)O)C(=O)N[C@@H](CCC(=O)O)C(=O)N[C@@H](CCC(=O)O)C(=O)N1CCC[C@H]1C(=O)N[C@@H](CCC(=O)O)C(=O)N[C@@H](CCC(=O)O)C(=O)N[C@@H](CCC(=O)O)C(=O)N[C@@H](CCC(=O)O)C(=O)N1CCC[C@H]1C(=O)N[C@@H](CCC(=O)O)C(=O)N[C@@H](CCC(=O)O)C(=O)N[C@@H](CCC(=O)O)C(=O)N[C@@H](CCC(=O)O)C(=O)N1CCC[C@H]1C(=O)N[C@@H](CCC(=O)O)C(=O)N[C@@H](CCC(=O)O)C(=O)N[C@@H](CCC(=O)O)C(=O)N[C@@H](CCC(=O)O)C(=O)NCCON=C(C)c1ccc(C[C@H](N)C(=O)N[C@@H](CC(C)C)C(=O)N[C@@H](Cc2ccc(O)cc2)C(=O)N[C@@H](CO)C(=O)N[C@@H](C)C(=O)N[C@@H](CC(C)C)C(=O)N[C@@H](C)C(=O)N[C@@H](CC(N)=O)C(=O)N[C@@H](CCCCN)C(=O)N[C@H]2CSSC[C@@H]3NC(=O)CNC(=O)[C@H](C(C)C)NC(=O)[C@H](Cc4c[nH]cn4)NC(=O)[C@H](CSSC[C@H](NC(=O)[C@H](CC(C)C)NC(=O)[C@H](CCCCN)NC(=O)[C@@H](NC(=O)[C@@H](NC(=O)[C@H](CCC(=O)O)NC(=O)[C@H](CCC(=O)O)NC(=O)[C@H](CCSC)NC(=O)[C@H](Cc4c[nH]c5ccccc45)NC(=O)[C@H](CO)NC(=O)[C@H](C)N)C(C)C)[C@@H](C)CC)C(=O)NCC(=O)N[C@@H](CCCNC(=N)N)C(=O)N[C@@H](CCC(=O)O)C(=O)N[C@@H](CC(C)C)C(=O)N[C@@H](C(C)C)C(=O)N[C@@H](CCCNC(=N)N)C(=O)N[C@@H](C)C(=O)N[C@@H](CCC(N)=O)C(=O)N[C@@H]([C@@H](C)CC)C(=O)N[C@@H](C)C(=O)N[C@@H]([C@@H](C)CC)C(=O)N[C@H](C(=O)NCC(=O)N[C@@H](CCSC)C(=O)N[C@@H](CO)C(=O)N[C@H](C(=O)N[C@@H](Cc4c[nH]c5ccccc45)C(=O)N[C@@H](CO)C(=O)O)[C@@H](C)O)CSSC[C@@H](C(=O)O)NC(=O)[C@H](Cc4ccccc4)NC(=O)[C@H](CCCNC(=N)N)NC(=O)[C@H](C)NC(=O)[C@H](CC(C)C)NC(=O)[C@H](CO)NC(=O)[C@H](CCCNC(=N)N)NC(=O)[C@H](CCCCN)NC(=O)[C@H]([C@@H](C)O)NC3=O)NC2=O)cc1)C(=O)O [AQ1-EEEEPEEEEPEEEEPEEEE-Glu^γ-C15-CH3] | 0.34 |

— patent US12097241B2, “Methods of treating kidney failure, and/or improving or stablizing renal function using modified relaxin polypeptides” (BRISTOL-MYERS SQUIBB COMPANY, priority 2017, dated 2024)
